The text below walks through data of patent publication US10017762B2, “Compositions and methods for treating or preventing lupus” (The United States of America, as represented by the …, priority 2010, dated 2018).

The subject of one experiment is blood basophils. Kind of experiment: Blood basophil numbers and HLA-DR expression in SLE patients under immunosuppressive treatments. The format is in vivo, human. Particulars: low dose (≤7.5 mg/day) vs medium to high dose (>7.5 mg/day) prednisone. As for the experimental part:
Blood was harvested in EDTA-coated tubes. 4 ml of blood was used to harvest plasma sample. For this purpose, blood was centrifugated at 600×g for 20 minutes at 4° C. Plasma phase was then harvested, and samples kept at […] until further analysis. For basophils analysis, 10 ml of whole blood were added to 20 ml of ACK lysing buffer and incubated 5 min at room temperature and 5 more minutes on ice. 30 ml of PBS was added, and cells were centrifuged (500×g, 5 min). This step was repeated three times total until no more red blood cells were visible. Cells were then resuspended into 10 ml (original volume) of FACS buffer (PBS/1% BSA/0.05% NaN3). Number of leukocytes per ml and viability were assessed with a ViCell cell counter (Beckman and Coulter). Viability was always over 90%. Cells were then processed for extracellular staining with the indicated surface markers. For basophil absolute counts, basophils were identified as FcϵRIα^+CD203c^+CD123^+CD11b^+ cells. For HLA-DR expression analysis, basophils were identified as FcϵRI^+CD203c^+CD11b^+. For CD62L expression analysis, basophils were identified as FcϵRIα^+CD203c^+CD123^+.

The test system of another experiment is FcϵRI. Particulars: Lin, H. et al. (2004); cited from earlier work.

For `C[C@]12C=CC(=O)C=C1CC[C@@H]1[C@@H]2C(=O)C[C@@]2(C)[C@H]1CC[C@]2(O)C(=O)CO` [prednisone], in the experiment on blood basophils, the HLA-DR expressing basophils entry was “no difference” and the “number of peripheral basophils” value is “no difference”. “omalizumab: recombinant DNA-derived humanized IgG monoclonal antibody that selectively binds to human immunoglobulin E (IgE)”: the “FcϵRI expression on basophils” value with FcϵRI was “decreases FcϵRI expression on basophils”.
